# Assay results from US20240116971A1, “NMN AND DERIVATIVES FOR ITS USE IN THE TREATMENT OF DEPRESSION AND/OR ANXIETY IN PATIENTS HAVING A FORM OF PARKINSONISM” (Nuvamid SA, priority 2021, published 2024).
# Tested on: MSA patients
# Assay: Safety of NMN dietary supplement: hemodynamic, blood count, inflammatory, liver, kidney, cardiac/muscular, metabolic parameters, adverse events
# Assay type: in vivo, human
# Protocol: The purpose of the multicentric, prospective, non-randomised, non-controlled pilot study is to study the efficacy of NMN administration in MSA patients (45-80 years old) at a larger scale. In this study, the safety, tolerance and efficacy of a dose of NMN are evaluated. The amount of NMN to be ingested daily is divided into 2 capsules (Size 0). Each patient takes 2 capsules/day in the morning during breakfast with a big glass of water. The composition of each capsule is as follows:
# The main objectives of the study are to evaluate the safety of the dietary supplement during a 12-week supplementation. The safety of the food supplement is assessed in terms of: • a) Hemodynamic parameters: • Blood pressure (systolic and diastolic arterial pressure (SAP, DAP) standing up and lying down (2 min)), • Heart rate (HR, standing up/lying down (2 min)). • b) Blood Formula Counting: • Hematies, • Leukocytes (lymphocytes, monocytes, neutrophils, basophils, eosinophils), • Platelets. • c) Inflammatory parameters: • C Reactive Protein (CRP), • Sedimentation rate. • d) Liver function: • ASAT, • ALAT, • gamma GT, • Alkaline phosphatases. • e) Kidney function: • Creatinemia, • Urea. • Cardiac and muscular function: • Creatine Phosphokinase (CPK). • f) Metabolic/biochemical parameters: • lonogram (Na+, K+, Cl−), • glycated hemoglobin • g) Occurrence of undesirable effects.
# 48 hours before each follow-up visit by the neurological investigator, a nurse visits the patient's home to take blood samples and measure the hemodynamic parameters [SAP/DAP lying down, standing up (2 min) and HR lying down, standing up (2 min)]. In addition, during each visit, the possible occurrence of adverse events will be asked to patients. The nurse visits are scheduled between D-7 and D-2 to confirm the patient's inclusion, then at D13 (for visit V2 at D15), D43 (for visit V3 at D45) and D88 (for the end of study visit at D90). No fasting was required for the biologic assessments. To ensure the safety of the food supplement, all biological parameters must be within the limits of reference values and/or judged by the investigating physician as non-clinical.
# Safety biology, pharmacokinetics and hemodynamic constants (D13; D43; D88): A blood sample is collected by a nurse at patient's home 48 hours before the visit to the investigational site (D13; D43 and D88) so that the investigator has the biological safety results on the day of the consultation.
# The required bioassessment is the same as the inclusion one (D-2) and include: • Complete and differential Blood cells Counts, • Metabolic/biochemical parameters: lonogram (Na+, K+, Cl−), Glycated hemoglobin (HbA1C) • Inflammatory assessment: CRP, sedimentation rate, • Liver check-up: AST, ALT, gamma GT, ALP, bilirubin • Renal assessment: Creatinemia, urea, • Cardiac and muscular assessment: CPK;
# Also, an aliquot of acidified whole blood is stored at the AML at −80° C. for the determination of NMN metabolites. The hemodynamic constants (BP and HR standing up/lying down) are taken and entered in the patient's follow-up notebook by the nurse. The nurse also questions the patient on the possible occurrence of adverse events and checks the patient's compliance with treatment by filling in his or her follow-up notebook and pill box. On receipt, the investigating physician check the results: the blood parameters must be within the reference value limits and/or judged by the investigating physician as not clinically relevant. Otherwise, the patient is summoned without delay by the investigating physician to leave the study prematurely.
# At D90, the safety and tolerance of the study product is assessed by the investigating physician during the visits provided for in the protocol by means of an interview with the patient, information gathered by the volunteer in the daily diary, a clinical examination (including blood pressure and heart rate measurements) and a blood test. All patients continued to take their usual treatment for MSA.
structure (smiles),measurement,setting,value
"NC(=O)c1ccc[n+]([C@@H]2O[C@H](COP(=O)([O-])O)[C@@H](O)[C@H]2O)c1 [beta-NMN, nicotinamide mononucleotide]",ionogram and glycated hemoglobin level,3-month follow-up,stable
same,impact on liver function,3 months,does not thus have an impact
same,induction of inflammation,3 months,does not thus induce inflammation
same,creatine phosphokinase,3 months of follow-up,relatively stable
same,liver parameters,3 months of follow-up,relatively stable
same,renal parameters,3 months of follow-up,relatively stable
same,inflammatory parameters,"3 months of follow-up, within or outside reference values, not clinically relevant",relatively stable
same,blood count values,"3 months of follow-up, within reference limits or not clinically relevant",relatively stable
same,"safety and tolerance, conclusion","MSA patients, 3 months",safe and well-tolerated
same,increase in average blood pressure and heart rate,"NMN 400 mg/day, 3 months",does not thus lead to an increase
same,mean heart rate (HR),"NMN 400 mg/day, 3 months, V0-V4 comparison p-value=0.2969",normal and stable over time
same,Mean systolic blood pressure,"NMN 400 mg/day, 3 months, V0-V4 comparison p-value=0.6172",normal and stable over time
same,Mean diastolic blood pressure,"NMN 400 mg/day, 3 months, V0-V4 comparison p-value=0.6719",normal and stable over time
same,"concentration of electrolytes (Na+, K+, Cl−) and glycemia",after 3 months of treatment,does not affect
same,impact on heart and muscle function,after 3 months of treatment,does not have an impact
